Counter-ions that a name gives are not always drawn.

The data set in a line: solubility in water. The class given is physicochemical. The conditions noted are these: stated in words in the process description.

Regarding `Cc1ccc(NC(=O)C2(c3ccc4c(c3)OC(F)(F)O4)CC2)nc1-c1cccc(C(=O)O)c1` [compound 9, 3-(6-(1-(2,2-difluorobenzo[d][1,3]dioxol-5-yl)cyclopropanecarboxamido)-3-methylpyridin-2-yl)benzoic acid.HCL salt], the solubility in water entry is “sparingly soluble”.
